From patent US20020051978A1, “Methods and compositions for the identification, assessment, prevention and therapy of human cancers” (priority 2000, published 2002) come the findings set out here.

Each structure is given as a SMILES string. Several values for one entry are separate records, joined by “and”; a condition that tells them apart may be missing. Identical values can stand only once. Like-named read-outs stand apart in the source and are kept apart here.

For this experiment, the system named is 60 cancer cell lines (NCI 60 cancer cell line series). The experiment in a line: NCI-DTP in vitro cancer screen, sulforhodamine B (SRB) growth inhibition, 48 hour exposure. It counts as cell-based, human. The protocol:
Cancer Cell Line Preparation. Sixty cancer cell lines were obtained from the National Cancer Institute Developmental Therapeutics Program (NCI-DTP). Procedures for growing cells and testing compounds have been described previously (Scudiero et al., Cancer Res. 1988, 48:4827-4833; Stinson et al., Anticancer Res.; Myers et al., Electrophoresis 1997, 18:647-653). Cells are plated on day 0 at a density individualized for each cell line so that they will generally be sub-confluent at the end of the assay period. On day 1, a compound is added in the format for a duplicate-well, 5-dose, ten-fold interval dose response study.
No-drug, no-cell and no-growth controls are included. On day 3 the cells are processed for staining with sulforhodamine B (SRB), which reflects the amount of cell mass present at the end of a 48 hour exposure to the test agent. From dose response curves based on the SRB data, various parameters can be determined. The one used in the present study is the G15o, defined as the concentration of compound required to inhibit growth of the cell line by 50%. More precisely, the quantity used in the calculation to be described is the potency measure -log{GI50}.
Activity database (A). Table IA, consisting of the growth inhibition (GI5o) values for the 60 cell lines and 24 compounds, was created from the NCI-DTP in vitro cancer screen database. This subset of compounds was selected from the larger 23,000 compound database available from the DTP. The compounds were selected on the basis of their known mechanism of action and chemical structure. The average potency—log{GI50} was extracted from the comma-delimited text files available through the Web at http://www.nci.nih.gov/intra/lmp/jnwbio.htmrl. Subsequently, these log{GI5o} values were inspected manually and classified as indicating either Low, Medium or High sensitivity to each compound.

For the molecule `COc1cccc2c1C(=O)c1c(O)c3c(c(O)c1C2=O)C[C@@](O)(C(=O)CO)C[C@@H]3O[C@H]1C[C@H](N)[C@H](O)[C@H](C)O1` [Adrlamycin], the “classification of cell line as Low(1), Medium(2) or High(3) sensitivity to compound” value (shortened to “classification of cell line”) is, setting by setting: (Breast BT-549 (CL5013)) 2; (Breast HS-578T CL5006) 2; (Breast MCF7(I) (CL5001)) 3; (Breast MCF7/ADRr (CL5002)) 1; (Breast MDA-MB-231 CL5005) 2; (Breast MDA-MB-435 (CL5011)) 2. Also, the “classification of cell line” value amounted to 2 (Breast MDA-N CL5012), 2 (Breast T-47D (CL5014)), 2 (CNS SF-268 CL12014) and 2 (CNS SF-295 CL12015).

For `Nc1ccn([C@@H]2O[C@H](CO)[C@@H](O)[C@@H]2O)c(=O)n1` [AraC], the “1 # of Low” value is listed as 17; the “2 # of Medium” value is recorded as 33; the “3 # of High” value is recorded as 10; the “classification of cell line” value is 2 and 3 and 1. For the same molecule, the “sensitivity class NSCLC NCI-H23(I) CL1001” value is recorded as 3, the “sensitivity class NSCLC NCI-H332M CL1017” value was determined as 2, the “sensitivity class NSCLC NCI-H460 CL1021” value is reported as 3 and the “sensitivity class NSCLC NCI-H522 CL1003” value came to 2. For the same molecule, the “sensitivity class Ovarian IGROV1 CL6010” value is given as 1, the “sensitivity class Ovarian OVCAR-3 CL6001” value is given as 1, the “sensitivity class Ovarian OVCAR-4 CL6002” value came to 1 and the “sensitivity class Ovarian OVCAR-5 CL6003” value is 2. Moreover, the “sensitivity class Ovarian OVCAR-8 CL6005” value amounted to 2, the “sensitivity class Ovarian SK-OV-3 CL6011” value was determined as 2, the “sensitivity class Prostate DU-145 CL11003” value worked out at 1 and the “sensitivity class Prostate PC-3(I) CL11001” value is 2. Further, the “sensitivity class Renal 786-O CL9018” value is on record as 2, the “sensitivity class Renal A498 CL9013” value was 2, the “sensitivity class Renal ACHN CL9023” value was 2 and the “sensitivity class Renal CAKI-1 CL9015” value was determined as 2. For the same molecule, the “sensitivity class Renal RXF-393 CL9016” value was 2, the “sensitivity class Renal SN12C CL9008” value worked out at 2, the “sensitivity class Renal TK10 CL9024” value is recorded as 1 and the “sensitivity class Renal UO-31 CL9004” value worked out at 2. Moreover, the “sensitivity class of the cell line to the compound (1 Low, 2 Medium, 3 High)” value was 2 and 1 and 3.

As for `O=NN(CCCl)C(=O)NCCCl` [BCNU], the “1 # of Low” value was determined as 13, the “2 # of Medium” value is 37, the “3 # of High” value is recorded as 10 and the “sensitivity class NSCLC NCI-H23(I) CL1001” value was determined as 2. The “sensitivity class NSCLC NCI-H332M CL1017” value is given as 1, the “sensitivity class NSCLC NCI-H460 CL1021” value came out at 2, the “sensitivity class NSCLC NCI-H522 CL1003” value was 3 and the “sensitivity class Ovarian IGROV1 CL6010” value was 2. Moreover, the “sensitivity class Ovarian OVCAR-3 CL6001” value is 2, the “sensitivity class Ovarian OVCAR-4 CL6002” value was found to be 2, the “sensitivity class Ovarian OVCAR-5 CL6003” value was 1 and the “sensitivity class Ovarian OVCAR-8 CL6005” value was 2. Moreover, the “sensitivity class Ovarian SK-OV-3 CL6011” value came out at 1, the “sensitivity class Prostate DU-145 CL11003” value amounted to 1, the “sensitivity class Prostate PC-3(I) CL11001” value is given as 2 and the “sensitivity class Renal 786-O CL9018” value came out at 3. In addition, the “sensitivity class Renal A498 CL9013” value is recorded as 1, the “sensitivity class Renal ACHN CL9023” value is listed as 2, the “sensitivity class Renal CAKI-1 CL9015” value was 2 and the “sensitivity class Renal RXF-393 CL9016” value stood at 2. The “sensitivity class Renal SN12C CL9008” value is reported as 2, the “sensitivity class Renal TK10 CL9024” value amounted to 2 and the “sensitivity class Renal UO-31 CL9004” value turned out to be 1.
